Data on eleven molecules can be found in ChEMBL document CHEMBL1201862, “PubChem BioAssay data set” (2004).

Calls of active or inactive are those of the source.

One data set concerns the target Cytochrome P450 2C19 (Homo sapiens, UniProt P33261). Kind of data set: Cytochrome panel assay with activity outcomes. Panel member name: p450-cyp2c19 Compounds with AC50 equal or less than 10 uM are considered active. It is filed as functional.
Data set [1] has as its target T1, Cytochrome P450 3A4 (Homo sapiens, UniProt P08684).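 Note: CYP3A4 tested as one member of a cytochrome P450 panel screen.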
Another data set has as its target Cytochrome P450 2D6 (Homo sapiens, UniProt P10635).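 Note: CYP2D6 member of a cytochrome P450 panel assay.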
In the next data set the target is T2, Cytochrome P450 1A2 (Homo sapiens, UniProt P05177).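 Note: PubChem cytochrome P450 panel assay, CYP1A2 panel member.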
T2 sequence (P05177 whole entry): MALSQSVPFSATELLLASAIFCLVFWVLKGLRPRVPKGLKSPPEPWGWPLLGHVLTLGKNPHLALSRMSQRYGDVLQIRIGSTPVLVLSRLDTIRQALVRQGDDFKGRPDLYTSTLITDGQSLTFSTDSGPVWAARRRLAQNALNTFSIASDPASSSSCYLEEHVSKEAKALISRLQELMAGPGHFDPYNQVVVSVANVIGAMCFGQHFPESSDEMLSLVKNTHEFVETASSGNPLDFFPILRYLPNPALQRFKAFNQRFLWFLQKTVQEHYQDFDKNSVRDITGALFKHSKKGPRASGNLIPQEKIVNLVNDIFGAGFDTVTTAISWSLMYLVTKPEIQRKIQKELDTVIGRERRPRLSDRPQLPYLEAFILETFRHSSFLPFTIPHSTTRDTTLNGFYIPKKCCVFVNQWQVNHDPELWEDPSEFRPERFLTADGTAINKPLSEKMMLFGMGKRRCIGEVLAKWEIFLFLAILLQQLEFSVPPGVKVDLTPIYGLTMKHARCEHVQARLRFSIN

The target of data set [2] is 5-hydroxytryptamine receptor 5A (Homo sapiens, UniProt P47898). Nature of the data set: Counterscreen for agonists of OPRM1-OPRD1 heterodimerization: luminescence-based cell-based high throughput dose response assay to identify agonists of 5-hydroxytryptamine (serotonin) 5A receptor (HTR5A). [Related pubchem assays (depositor defined):AID504326, AID504355, AID504692, AID504904, AID504905]. Format: functional. In general terms: A counterscreen serves to expose hits that act by an unwanted route or on another target.
5-hydroxytryptamine receptor 5A, sequence (P47898 whole entry): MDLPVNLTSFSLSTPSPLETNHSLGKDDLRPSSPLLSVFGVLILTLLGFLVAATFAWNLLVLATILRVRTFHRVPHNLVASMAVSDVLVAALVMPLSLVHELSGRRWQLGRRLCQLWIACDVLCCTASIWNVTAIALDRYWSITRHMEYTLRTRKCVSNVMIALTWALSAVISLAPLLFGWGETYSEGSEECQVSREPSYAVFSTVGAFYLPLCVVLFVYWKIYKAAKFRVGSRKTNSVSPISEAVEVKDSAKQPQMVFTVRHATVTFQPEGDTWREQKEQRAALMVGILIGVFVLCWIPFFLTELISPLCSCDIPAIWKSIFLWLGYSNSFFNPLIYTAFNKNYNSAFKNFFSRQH

The target of a further data set is Mu-type opioid receptor (Homo sapiens, UniProt P35372). Nature of the data set: Counterscreen for agonists of heterodimerization of the mu 1 (OPRM1) and delta 1 (OPRD1) opioid receptors: Luminescence-based cell-based high throughput dose response assay to identify agonists of OPRM1 homodimerization. It is filed as functional.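 Note: U2OS cells expressing OPRM1 and beta-arrestin as split beta-galactosidase partners.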
Mu-type opioid receptor, sequence (P35372 whole entry): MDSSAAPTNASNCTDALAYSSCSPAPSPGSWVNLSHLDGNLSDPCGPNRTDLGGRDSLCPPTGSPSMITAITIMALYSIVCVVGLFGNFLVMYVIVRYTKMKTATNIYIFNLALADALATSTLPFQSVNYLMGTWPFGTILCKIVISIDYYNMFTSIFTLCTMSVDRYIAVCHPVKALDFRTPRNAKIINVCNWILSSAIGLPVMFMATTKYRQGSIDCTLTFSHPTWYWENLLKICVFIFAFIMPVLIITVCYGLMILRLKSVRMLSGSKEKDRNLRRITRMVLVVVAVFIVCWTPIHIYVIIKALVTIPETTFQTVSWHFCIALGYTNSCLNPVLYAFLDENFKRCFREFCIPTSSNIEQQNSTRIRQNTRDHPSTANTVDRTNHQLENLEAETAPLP
The target of data set [3] is Delta-type opioid receptor (Homo sapiens, UniProt P41143). Nature of the data set: Counterscreen for agonists of heterodimerization of the mu 1 (OPRM1) and delta 1 (OPRD1) opioid receptors: Luminescence-based cell-based high throughput dose response assay to identify agonists of OPRD1 homodimerization. [Related pubchem assays (depositor defined):AID504326, AID504355, AID504692, AID504904, AID504905]. Format: functional.
Delta-type opioid receptor, sequence (P41143 whole entry): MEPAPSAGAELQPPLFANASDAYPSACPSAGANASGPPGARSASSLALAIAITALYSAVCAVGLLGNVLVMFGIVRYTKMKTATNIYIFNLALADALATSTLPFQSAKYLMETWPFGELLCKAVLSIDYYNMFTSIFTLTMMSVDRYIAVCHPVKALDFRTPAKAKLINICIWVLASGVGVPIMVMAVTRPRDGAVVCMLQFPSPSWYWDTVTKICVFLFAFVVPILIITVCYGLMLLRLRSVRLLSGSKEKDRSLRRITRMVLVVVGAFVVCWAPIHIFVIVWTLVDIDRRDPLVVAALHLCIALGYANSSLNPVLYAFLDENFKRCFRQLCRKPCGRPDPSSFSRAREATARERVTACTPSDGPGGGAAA

In data set [4] the test system is HEK293. Kind of data set: cells. Format: functional, cell-based. The note with it: Homo sapiens.
The nature of data set [5]: Luminescence Cell-Based Dose Response HTS to Identify Inhibitors of 5'UTR Stem-Loop Driven Prion Protein mRNA Translation in H4 Neuroglioblastoma Cells. [Related pubchem assays: 1827 (Project Summary), 1813 (Primary HTS)]. Format: functional.
Data set [6] has as its system HEK293. Nature of the data set: NOD2 signaling inhibitors in MDP-stimulated cells, cell-based, uHTS, luminescence (AID 2001). Format: functional. The note with it: Homo sapiens.
The target in data set [7] is Nucleotide-binding oligomerization domain-containing protein 2 (Homo sapiens, UniProt Q9HC29). Kind of data set: NOD2 signaling inhibitors, cell-based, luminescence, uHTS, HEK293 (AID 1566). Format: functional.
Nucleotide-binding oligomerization domain-containing protein 2, sequence (Q9HC29 whole entry, the tested form may be a part): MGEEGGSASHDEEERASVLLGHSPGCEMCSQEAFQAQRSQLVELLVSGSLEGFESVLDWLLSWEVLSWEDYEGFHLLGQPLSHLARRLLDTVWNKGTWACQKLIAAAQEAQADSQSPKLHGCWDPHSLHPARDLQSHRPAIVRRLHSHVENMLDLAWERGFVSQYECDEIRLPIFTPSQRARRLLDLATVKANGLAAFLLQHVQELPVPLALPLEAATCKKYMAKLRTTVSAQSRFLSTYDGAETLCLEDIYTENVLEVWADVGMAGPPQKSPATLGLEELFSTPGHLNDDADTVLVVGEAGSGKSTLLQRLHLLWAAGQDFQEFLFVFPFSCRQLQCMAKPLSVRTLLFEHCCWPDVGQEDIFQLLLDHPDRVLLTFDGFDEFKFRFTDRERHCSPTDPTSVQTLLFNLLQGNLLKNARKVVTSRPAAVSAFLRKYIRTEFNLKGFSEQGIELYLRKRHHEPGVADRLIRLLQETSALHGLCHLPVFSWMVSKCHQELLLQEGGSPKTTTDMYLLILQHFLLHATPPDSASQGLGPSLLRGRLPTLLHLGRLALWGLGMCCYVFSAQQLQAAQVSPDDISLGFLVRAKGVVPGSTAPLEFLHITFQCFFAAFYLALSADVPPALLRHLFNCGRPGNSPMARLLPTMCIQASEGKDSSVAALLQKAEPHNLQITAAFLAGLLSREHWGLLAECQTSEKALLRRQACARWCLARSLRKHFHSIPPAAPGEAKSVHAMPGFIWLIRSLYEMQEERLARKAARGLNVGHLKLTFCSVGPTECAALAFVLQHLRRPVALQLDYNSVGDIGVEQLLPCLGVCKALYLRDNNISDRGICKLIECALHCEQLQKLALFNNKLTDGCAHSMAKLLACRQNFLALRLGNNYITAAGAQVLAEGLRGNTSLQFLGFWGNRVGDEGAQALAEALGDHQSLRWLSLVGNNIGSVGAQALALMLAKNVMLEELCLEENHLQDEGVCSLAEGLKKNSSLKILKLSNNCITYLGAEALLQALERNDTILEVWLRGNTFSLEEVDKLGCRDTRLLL
Data set [8] addresses T3, Nucleotide-binding oligomerization domain-containing protein 1 (Homo sapiens, UniProt Q9Y239).
T3 sequence (Q9Y239 whole entry): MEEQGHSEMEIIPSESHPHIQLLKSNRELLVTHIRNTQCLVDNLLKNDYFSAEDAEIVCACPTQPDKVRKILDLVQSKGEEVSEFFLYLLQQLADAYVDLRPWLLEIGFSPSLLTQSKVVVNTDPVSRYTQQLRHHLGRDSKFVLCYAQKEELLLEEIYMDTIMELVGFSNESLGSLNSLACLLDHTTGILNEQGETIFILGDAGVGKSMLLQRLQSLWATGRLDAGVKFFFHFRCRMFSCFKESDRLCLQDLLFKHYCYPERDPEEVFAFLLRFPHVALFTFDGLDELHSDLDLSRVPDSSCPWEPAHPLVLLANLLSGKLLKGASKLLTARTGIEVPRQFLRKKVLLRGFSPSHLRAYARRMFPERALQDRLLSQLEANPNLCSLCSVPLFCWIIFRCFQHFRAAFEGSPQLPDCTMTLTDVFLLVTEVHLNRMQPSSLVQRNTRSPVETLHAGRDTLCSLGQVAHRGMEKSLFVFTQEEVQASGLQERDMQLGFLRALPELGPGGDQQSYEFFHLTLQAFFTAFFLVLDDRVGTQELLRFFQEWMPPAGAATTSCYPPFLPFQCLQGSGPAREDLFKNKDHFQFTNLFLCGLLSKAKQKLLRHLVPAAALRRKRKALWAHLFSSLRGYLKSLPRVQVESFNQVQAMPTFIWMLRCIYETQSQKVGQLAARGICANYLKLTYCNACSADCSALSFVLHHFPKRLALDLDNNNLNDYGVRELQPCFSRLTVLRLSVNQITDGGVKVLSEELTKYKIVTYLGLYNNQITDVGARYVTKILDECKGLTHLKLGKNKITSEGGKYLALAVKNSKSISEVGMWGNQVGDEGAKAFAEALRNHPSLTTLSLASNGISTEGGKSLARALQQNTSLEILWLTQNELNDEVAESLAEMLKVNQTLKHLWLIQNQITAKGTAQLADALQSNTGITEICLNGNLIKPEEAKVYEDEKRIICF
Kind of data set: NOD1 signaling inhibitors, SAR follow-up, revised (AID 2333). Format: functional.

Data set [9] is described as follows: inhibitors of SNCA 5'UTR-driven reporter translation, confirmation, H4 neuroglioma cells, luminescence (AID 1988). Format: functional, cell-based.
In data set [10] the test system is HEK293. Nature of the data set: cells. It is filed as functional, cell-based. The note with it: Homo sapiens. The source holds these as a separate data set.
The nature of data set [11]: inhibitors of firefly luciferase expression or activity, dose response, H4 neuroglioma cells, luminescence (AID 1990). Format: functional, cell-based.
The subject of data set [12] is HEK293. Nature of the data set: NOD1 signaling inhibitors, primary screen, cell-based, luminescence, uHTS (AID 1578). Format: functional. The note with it: Homo sapiens.
Data set [13] has as its system HEK293. Nature of the data set: cells. Format: functional, cell-based. The note with it: Homo sapiens. The source holds these as a separate data set.
The next data set deals with Tumor necrosis factor (Homo sapiens, UniProt P01375). Kind of data set: TNFa-triggered NF-kB activation inhibitors, SAR follow-up, cell-based, revised (AID 2337). Format: functional.
Tumor necrosis factor, sequence (P01375 whole entry): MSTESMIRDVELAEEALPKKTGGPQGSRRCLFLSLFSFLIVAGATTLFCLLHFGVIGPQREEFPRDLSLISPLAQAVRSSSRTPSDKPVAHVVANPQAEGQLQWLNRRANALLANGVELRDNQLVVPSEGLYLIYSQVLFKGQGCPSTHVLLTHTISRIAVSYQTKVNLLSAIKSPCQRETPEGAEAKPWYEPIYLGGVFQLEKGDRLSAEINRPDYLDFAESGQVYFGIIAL
Data set [14] concerns HEK293. Nature of the data set: cells. The settings on record: Homo sapiens.
Data set [15] deals with T1, Cytochrome P450 3A4. This is another data set of the same source.
The target of data set [16] is T4, Heat shock factor protein 1 (Mus musculus, UniProt P38532).
T4 sequence (P38532 whole entry): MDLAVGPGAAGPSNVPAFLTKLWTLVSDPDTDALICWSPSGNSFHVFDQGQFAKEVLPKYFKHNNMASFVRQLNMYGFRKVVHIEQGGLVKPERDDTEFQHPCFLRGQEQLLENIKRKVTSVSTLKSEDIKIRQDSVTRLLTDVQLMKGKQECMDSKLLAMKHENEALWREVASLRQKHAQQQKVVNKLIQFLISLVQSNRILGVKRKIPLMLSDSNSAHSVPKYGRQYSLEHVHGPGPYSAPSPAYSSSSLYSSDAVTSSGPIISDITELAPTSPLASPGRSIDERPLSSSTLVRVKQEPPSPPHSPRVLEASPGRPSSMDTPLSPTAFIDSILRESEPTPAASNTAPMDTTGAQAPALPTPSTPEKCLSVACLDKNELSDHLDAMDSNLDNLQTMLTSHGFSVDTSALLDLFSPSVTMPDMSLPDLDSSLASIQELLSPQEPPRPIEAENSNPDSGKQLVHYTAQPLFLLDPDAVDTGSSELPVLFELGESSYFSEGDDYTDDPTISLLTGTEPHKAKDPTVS
Kind of data set: inhibition of MG132-induced HSE-luciferase signal, confirmation, cell-based, NIH3T3, luminescence, dose retest (AID 2382).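 Note: NIH3T3 fibroblasts with HSF1-driven luciferase reporter stressed by proteasome inhibitor MG132; luminescence from HSF1-driven luciferase expression after 8 hours of MG132 stress.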 Format: functional.

The nature of data set [17]: Shn3 3'UTR reporter inhibitors, dose response, cell-based, Clone20 osteoblasts, firefly luciferase, cherry-picked (AID 624132).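 Note: firefly luciferase luminescence from reporter carrying the Shn3 3'UTR in osteoblasts.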 It is filed as functional.
A short description of data set [18]: control 3'UTR Renilla luciferase suppression, dose response, counter-screen for Shn3 inhibitor project, cell-based, Clone20-Shn3RL, cherry-picked (AID 624133). It is filed as functional.

T1 sequence (P08684 whole entry): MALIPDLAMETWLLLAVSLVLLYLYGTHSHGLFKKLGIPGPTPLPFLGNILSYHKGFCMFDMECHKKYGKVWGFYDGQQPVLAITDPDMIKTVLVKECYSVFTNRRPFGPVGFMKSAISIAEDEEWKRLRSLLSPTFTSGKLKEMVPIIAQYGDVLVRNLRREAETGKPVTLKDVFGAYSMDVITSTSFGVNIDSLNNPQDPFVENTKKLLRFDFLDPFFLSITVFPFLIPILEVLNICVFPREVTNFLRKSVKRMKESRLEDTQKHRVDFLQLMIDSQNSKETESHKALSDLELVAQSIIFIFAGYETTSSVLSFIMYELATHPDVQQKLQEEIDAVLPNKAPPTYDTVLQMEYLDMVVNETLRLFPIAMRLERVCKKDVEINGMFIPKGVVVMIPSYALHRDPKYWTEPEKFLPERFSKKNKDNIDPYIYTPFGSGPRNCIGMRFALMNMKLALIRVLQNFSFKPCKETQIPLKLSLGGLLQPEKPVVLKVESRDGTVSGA
Cytochrome P450 2D6, sequence (P10635 whole entry): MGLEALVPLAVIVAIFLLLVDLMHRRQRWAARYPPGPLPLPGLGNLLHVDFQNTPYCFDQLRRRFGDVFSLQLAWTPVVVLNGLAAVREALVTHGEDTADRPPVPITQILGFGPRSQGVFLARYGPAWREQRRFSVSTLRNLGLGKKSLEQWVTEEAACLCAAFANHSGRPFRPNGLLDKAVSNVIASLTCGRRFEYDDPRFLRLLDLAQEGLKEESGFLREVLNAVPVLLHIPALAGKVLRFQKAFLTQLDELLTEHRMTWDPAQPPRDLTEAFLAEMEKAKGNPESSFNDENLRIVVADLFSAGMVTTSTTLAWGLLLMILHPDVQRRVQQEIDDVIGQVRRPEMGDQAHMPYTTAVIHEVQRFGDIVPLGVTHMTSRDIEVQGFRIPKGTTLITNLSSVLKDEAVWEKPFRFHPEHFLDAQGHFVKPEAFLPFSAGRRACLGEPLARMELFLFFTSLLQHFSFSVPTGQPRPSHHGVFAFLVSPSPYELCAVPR
Cytochrome P450 2C19, sequence (P33261 whole entry): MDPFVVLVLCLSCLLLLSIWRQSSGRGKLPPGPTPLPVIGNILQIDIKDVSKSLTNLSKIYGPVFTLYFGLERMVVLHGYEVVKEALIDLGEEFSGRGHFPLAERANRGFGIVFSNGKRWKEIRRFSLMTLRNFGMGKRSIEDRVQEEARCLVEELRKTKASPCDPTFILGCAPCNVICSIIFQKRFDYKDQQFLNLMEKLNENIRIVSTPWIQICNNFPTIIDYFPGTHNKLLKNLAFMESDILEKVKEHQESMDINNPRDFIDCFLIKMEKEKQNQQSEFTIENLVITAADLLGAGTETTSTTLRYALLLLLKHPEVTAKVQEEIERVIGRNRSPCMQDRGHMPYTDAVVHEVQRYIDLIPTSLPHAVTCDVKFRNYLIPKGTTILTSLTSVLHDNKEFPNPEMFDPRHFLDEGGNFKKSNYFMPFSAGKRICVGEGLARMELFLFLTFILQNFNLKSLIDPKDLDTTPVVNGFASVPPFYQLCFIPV

As a reminder, the AC50 is the midpoint of the concentration-response curve, whichever way the signal moves. For the molecule `CC(C)n1nnc2ccccc2c1=O`, the AC50 at Cytochrome P450 2C19 (read-out: AC50) was 39.8 µM (inconclusive); on Cytochrome P450 3A4 [1], “inconclusive”; on Cytochrome P450 2D6, “inconclusive”; at Cytochrome P450 1A2, 11.2 µM (inconclusive).
Broadly, the EC50 is the concentration needed to bring the measured effect to its halfway point. As for `CN(C)C(CNC(=O)c1ccc(Br)cc1)c1ccco1` (centres undefined), the EC50 (in data set [2]; on Mu-type opioid receptor; in data set [3]) was > 92.5 µM (inactive) in each case.
The term IC50 denotes the midpoint of a concentration-inhibition curve. In the case of `COc1cc(C(=O)Nc2sc3c(c2C(=O)O)CCC(C)C3)cc(OC)c1OC` (centres undefined), the IC50 was > 20 µM (inactive) in the data set on HEK293 [4]; 9.76 µM (active) in the data set with HEK293 [6]; 5.19 µM (active) in [8]; > 20 µM (inactive) in the data set with HEK293 [10]; > 20 µM (inactive) in the data set on HEK293 [13]; 7.41 µM (active) on Tumor necrosis factor. For the same molecule, the IC50 in the data set on HEK293 [14] is > 20 µM (inactive). For the same molecule, the concentration for a half-maximal effect (EC50) in [5] was > 120 µM (not active); in data set [7], 2.24 µM (active); in data set [9], 12.8 µM (active); in data set [11], > 120 µM (not active); with HEK293 [12], 4.16 µM (active).
For `CCOc1cc(CNCCO)c(Cl)cc1OCC(=O)NCCc1ccccc1`, at Cytochrome P450 2D6, the AC50 result is “inconclusive”.
Regarding `COC(=O)c1cc(OC)c(OC)cc1N=C(S)N1CCN(C)CC1`, the AC50 on Cytochrome P450 3A4 [15] was 14.1 µM (inconclusive); at Cytochrome P450 2D6, “inconclusive”; on Cytochrome P450 1A2, 11.2 µM (inconclusive).
In the case of `Cc1cccc(NC(=S)NC(=O)CCc2ccccc2)c1`, the AC50 at Cytochrome P450 3A4 [15] was 25.1 µM (inconclusive). Also, the EC50 (in [2]; at Mu-type opioid receptor; in data set [3]) was > 92.5 µM (inactive) each time.
Regarding `COc1ccc(C(C)=O)c(OC(=O)c2ccco2)c1`, the results for the concentration at half-maximal activity (AC50) on Cytochrome P450 2C19 (read-out: AC50) and at Cytochrome P450 2D6 were 7.94 µM (inconclusive) and “inconclusive”, respectively.
Regarding `O=C(O)CCC(=O)Nc1ccc(C(=O)N2CCCCC2)cc1`, the concentration at half-maximal activity (AC50) result on Cytochrome P450 2C19 and on Cytochrome P450 2D6 was “inconclusive” throughout.
As for `Cc1cc(C(=O)COC(=O)c2ccccc2Br)c(C)n1CC1CCCO1` (centres undefined), the IC50 in the data set on HEK293 [4] is < 0.312 µM (active); in the data set on HEK293 [6], 0.036 µM (active); in data set [8] it was 4.8 µM (active); with HEK293 [10], > 20 µM (inactive); in the data set on HEK293 [13], > 20 µM (inactive); at Tumor necrosis factor, 0.0456 µM (active). Further, the IC50 in the data set on HEK293 [14] was > 20 µM (inactive). For the same molecule, the EC50 in [16] was < 0.16 µM (active); in [7], 0.46 µM (active); in the data set on HEK293 [12], > 20 µM (inactive). Also, the AC50 in [17] was > 70 µM (inactive); in data set [18] it was 21.4 µM (active).
Turning to `COC(=O)C1=C(C)N(CCCC(=O)O)C(=O)NC1c1ccccc1OS(=O)(=O)c1ccccc1[N+](=O)[O-]` (centres undefined), the figures for the EC50 (in data set [2]; at Mu-type opioid receptor; in data set [3]) were > 92.5 µM (inactive), > 92.5 µM (inactive) and 15.5 µM (inactive), respectively.
As for `COC(=O)C1=C(C)N(CCCC(=O)O)C(=O)NC1c1ccccc1OS(=O)(=O)c1ccc([N+](=O)[O-])cc1` (centres undefined), the EC50 is > 92.4 µM (inactive) in data set [2], > 92.4 µM (inactive) at Mu-type opioid receptor and 11.7 µM (inactive) in data set [3].
